# In US4192889A, “Ruminant feeds containing trichloroethyl esters of essential amino acids” (E. R. Squibb & Sons, Inc., priority 1979, dated 1980):
# Columns and labels:
# [1] = tested on: volatile fatty acid concentrations in the in vitro rumen fermentation; experiment: in vitro rumen fermentation, volatile fatty acids (alfalfa hay:concentrate 3:1); parameters: species or system sheep; conditions: for Acetic / Acetic Propionic (ratio) / Propionic / Total Acids / butyric: Table 10, 0.2 mg/ml
# From the text: Based on the knowledge of the foregoing, a practical method of testing growth promoters in vitro has been the simulation of conditions in the rumen with fermentation reactions. Such a method comprises adding the test substance to a substrate such as ground hay, corn or mixtures of feed materials. Rumen fluid from a fasted ruminant (bovine, ovine, or caprine) is mixed with a buffer solution and added to a fermentation flask containing the test additive and the substrate. The flask is purged of oxygen, stoppered with a pressure release valve, and incubated at 39°±1° C. for periods up to 48 hours. The change in volatile fatty acid concentration is determined by chemical analysis of the rumen fluid before and after fermentation. As a control, the above experiment is run without a test additive.
# (§1) A one gram sample of substrate ground through a 1 mm screen is weighted into 100 ml. lipless beakers equipped with gas-release valves. The substrate consists of alfalfa hay containing approximately 16% protein and a concentrate containing ground corn 60.7%, alfalfa meal 17.5%, molasses 10.0%, soybean meal 5.3%, wheat bran 5.0%, trace mineralized salt 1.0%, limestone 0.5% and Vitamin D 300,000 I.U./ton, mixed in the proportion 3:1. The experimental composition is added to the substrate. 25 ml. of filtered rumen fluid obtained from fasted sheep maintained on feed the same as the above mentioned substrate and 25 ml. of McDougal's buffer solution serve as the inoculum. The buffer solution is as follows:
# (§2) The fermentation mixture is flushed with carbon dioxide and the vessel is capped with a gas release valve. The fermentation vessel (beaker) is placed in a water bath and incubated at 39° C.±1° for six hours. The sample is mixed every hour by shaking the beaker.
# (§3) At the end of the 6-hour fermentation period the sample is strained through 4 layers of cheesecloth into a sample bottle containing 1 ml. saturated solution of mercuric chloride. The sample is frozen immediately until analyzed for the volatile fatty acids (VFA) (mg/100 ml.). Prior to analysis, each sample is acidified with 30% phosphoric acid and then analyzed by gas chromatography using a column containing 5% nonylphenoxypolyoxyethylene ethanol plus 0.5% phosphoric acid on 100-120 mesh Gas Chrom S. The acids determined are acetic, propionic, butyric, isobutyric, valeric and isovaleric acids. Total VFA is considered as the addition of these acids. The ratio of acetic:propionic (A:P) is obtained by dividing the concentration of acetic acid by that of propionic acid.
# The effect of various compounds alone on the volatile fatty acid concentrations was determined by the procedure of Example 3. […] A direct comparison between phenylalanine and phenylalanine trichloroethyl ester is provided.
# [2] = tested on: volatile fatty acid concentrations in fistulated sheep; experiment: volatile fatty acid concentrations in vivo in sheep with rumen fistulae (227 g concentrate + 680 g alfalfa hay); parameters: species or system sheep (wethers); conditions: for acetic:propionic ratio (in words) / proportion of propionic acid (in words): fistulated sheep; for Total acids (mg/100 ml.): Table 3, treatment day 7
# From the text: (§4) Mature sheep (wethers) fitted with permanent rumen fistulae were used to determine the effect of L-phenylalanine, 2,2,2-trichloroethyl ester on volatile fatty acid concentrations in vivo (3 wethers per treatment). The animals were individually penned and fed 227 g. of concentrate (described in Example 3) and 680 g. of alfalfa hay once daily. The test compound was admixed with the concentrate. The sheep were medicated for 7 days. Samples for analysis were obtained before (Day 0) and after treatment (Day 7) approximately 6 hours after feeding.
# [3] = tested on: volatile fatty acid concentrations in the in vitro rumen fermentation; experiment: in vitro rumen fermentation, volatile fatty acids (high concentrate substrate, alfalfa hay:concentrate 1:3); parameters: species or system sheep
# Procedure: as §1, §2, §3
# The procedure is described in Example 3. In this example, however, the substrate consisted of alfalfa hay and concentrate in the ratio of 1:3 and inoculum was obtained from sheep fed alfalfa and concentrate in the ratio of 1:3. The concentrate (Fit-N-Fresh)is commercially available from Agway, Inc. and contains grain products, plant protein products, processed grain by-products, cane molasses, minerals, vitamins and a preservative.
# The 2,2,2-trichloroethyl ester of glycine was tested in vitro in a manner similar to that described in Example 4.
# [4] = body weight gain and feed efficiency of growing lambs; assay type: in vivo, lambs (wether and ewe)
# Procedure: A test was conducted to determine if feeding L-phenylalanine 2,2,2-trichloroethyl ester to growing lambs was effective in improving growth and feed efficiency. Wether and ewe lambs were divided into groups of 30 lambs each. They were acclimated to their pens for 2 weeks prior to treatment.
# The feed supplied to the animals had the following composition
# The test compound in an amount of 0.0055% (50 g/ton) was admixed with the above feed composition.
# Body weights and feed consumption were recorded at 0, 2, 4 and 6 weeks. Feed efficiencies were calculated.
# The test procedure of Example 9 was followed to test the growth effect and feed efficiency of glycine 2,2,2-trichloroethyl ester on growing lambs. The feed composition of Example 9 was used but contained glycine 2,2,2-trichloroethyl ester in an amount of 0.0044% (40 g/ton). There were 44 lambs in the control group receiving the feed composition without additive and 42 lambs receiving the feed composition containing the amino acid ester.
# The test procedure of Example 9 was followed to test the growth effect and feed efficiency of L-phenylalanine 2,2,2-trichloroethyl ester on growing lambs. The feed composition of Example 9 was used but contained 0.0088% (80 g/ton) of this amino acid ester. There were 59 lambs in the control group fed the feed without additive and 58 lambs in the group fed the feed composition containing the test compound.
# [5] = tested on: volatile fatty acid concentrations in the rumen of fistulated wethers; experiment: volatile fatty acid concentrations in the rumen of fistulated wethers (454 g concentrate + 454 g chopped mixed hay); assay type: in vivo, sheep (wethers); conditions: for Total acids (mg/100 ml): Table 4, treatment day 7
# From the text: as §4
# An experiment similar to that described in Example 5 was performed except that the animals (3 per treatment) were fed 454 g. of concentrate (described in Example 3) and 454 g. of chopped mixed (grasses) hay.
# [6] = fistulated wethers, concentrate/mixed hay diet
Compound,Acetic [1],Acetic Propionic (ratio) [1],Propionic [1],Total Acids [1],butyric [1],acetic:propionic ratio (in words) [2],proportion of propionic acid (in words) [2],acetic:propionic ratio (in words) [3],propionic acid concentration (in words) [3],also measured
N[C@@H](Cc1ccc(Cl)cc1)C(=O)O (racemic) [p-chlorophenylalanine],91 % of Control,101 % of Control,91 % of Control,91 % of Control,92 % of Control,,,,,
"NCC(=O)OCC(Cl)(Cl)Cl [2,2,2-trichloroethyl ester of glycine, aminoacetic acid 2,2,2-trichloroethyl ester]",,,,,,decreasing the acetic:propionic ratio,effective in increasing the proportion of propionic acid,decreasing the acetic:propionic ratio,effective in increasing propionic acid concentration,"Total acid (mg/100 ml) ([2]; Table 6, 500 mg/head/day, treatment): 731 mg/100 ml; Weight gain ([4]; Table 8, 0.0044% (40 g/ton) in feed, 0-2 wks, control 2.32): 2.31 kg; Weight gain ([4]; Table 8, 0.0044% (40 g/ton) in feed, 0-4 wks, control 5.09): 5.13 kg; Feed efficiency gain/feed ([4]; Table 8, 0.0044% (40 g/ton) in feed, 0-6 wks, control 0.148): 0.154 gain/feed; Weight gain ([4]; Table 8, 0.0044% (40 g/ton) in feed, 0-6 wks, control 7.18): 7.37 kg"
"N[C@@H](Cc1ccccc1)C(=O)OCC(Cl)(Cl)Cl [L-Phenylalanine 2,2,2-trichloroethyl ester]",,,,,,decreased the acetic:propionic ratio,increased the proportion of propionic acid,decreasing the acetic:propionic ratio,effective in increasing the propionic acid concentration,"Total acids (mg/100 ml) ([5]; 200 mg/head/day): 663 mg/100 ml; Total acids (mg/100 ml) ([5]; 500 mg/head/day): 734 mg/100 ml; acetic:propionic ratio (in words) [5, 6]: decreasing the acetic:propionic ratio; proportion of propionic acid (in words) [5, 6]: effective in increasing the proportion of propionic acid; Total acids (mg/100 ml.) ([2]; 200 mg/head/day): 667 mg/100 ml.; Total acids (mg/100 ml.) ([2]; 500 mg/head/day): 624 mg/100 ml.; acetic to propionic acid ratio (in words) ([1]; at all levels): decreasing the acetic to propionic acid ratio; propionic acid concentrations (in words) ([1]; at all levels): effective in increasing the propionic acid concentrations; feed efficiency of growing lambs (in words) ([4]; 0.0055% (50 g/ton) in the feed): improving feed efficiency; gains of growing lambs (in words) ([4]; 0.0055% (50 g/ton) in the feed): effective in increasing gains; Body weight gain ([4]; Table 7, 0.0055% (50 g/ton) in feed, 0-2 wks., control 2.47): 2.97 kg; Body weight gain ([4]; Table 7, 0.0055% (50 g/ton) in feed, 0-4 wks., control 5.80): 5.82 kg; Body weight gain ([4]; Table 7, 0.0055% (50 g/ton) in feed, 0-6 wk., control 8.51): 9.08 kg; Feed efficiency (gain/unit of feed) ([4]; Table 7, 0.0055% (50 g/ton) in feed, 0-6 wks., control 0.190): 0.196 gain/unit of feed; Weight gain ([4]; Table 9, 0.0088% (80 g/ton) in feed, 0-2 wks, control 1.50): 1.49 kg; Weight gain ([4]; Table 9, 0.0088% (80 g/ton) in feed, 0-4 wks, control 4.44): 4.63 kg; Feed efficiency gain/feed ([4]; Table 9, 0.0088% (80 g/ton) in feed, 0-6 wks, control 0.160): 0.168 gain/feed; Weight gain ([4]; Table 9, 0.0088% (80 g/ton) in feed, 0-6 wks, control 7.56): 7.81 kg"
N[C@@H](Cc1ccccc1)C(=O)O [L-phenylalanine],95 % of Control,100 % of Control,94 % of Control,96 % of Control,97 % of Control,,,,,
O=CC(Cl)(Cl)Cl [chloral],88 % of Control,80 % of Control,110 % of Control,96 % of Control,110 % of Control,,,,,
